Laboratory results as given in the NIST ThermoML archive (doi:10.1021/je060097q).

Settings: Capillary rise

COC(C)(C)C [2-methoxy-2-methylpropane]
Settings	surface tension liquid-gas [mN/m]
243.08 K	24.08
248.01 K	23.43
253.11 K	22.84
258.13 K	22.32
263.1 K	21.65
268.13 K	20.97
273.16 K	20.52
278.11 K	19.99
283.12 K	19.35
288.13 K	18.96
293.07 K	18.53
298.08 K	17.75
303.11 K	17.23
308.15 K	16.71
313.16 K	16.25
318.11 K	15.61
323.16 K	15.09
328.14 K	14.52
333.15 K	14.02
338.16 K	13.56
343.13 K	13.06
348.13 K	12.5
353.13 K	11.94
358.15 K	11.55
363.13 K	10.92
368.13 K	10.53
373.12 K	9.946
378.12 K	9.534
383.12 K	8.956
388.14 K	8.518
393.13 K	8.006

COCOC [dimethoxymethane]
Settings	surface tension liquid-gas [mN/m]
238.07 K	28.12
243.12 K	27.42
248.13 K	26.76
253.12 K	26.21
258.12 K	25.63
263.08 K	24.83
268.09 K	24.23
273.09 K	23.63
278.08 K	23.11
283.07 K	22.39
288.08 K	21.75
293.05 K	21.02
298.04 K	20.36
303.16 K	19.7
308.15 K	18.99
313.16 K	18.4
318.16 K	17.67
323.15 K	17.16
328.13 K	16.56
333.16 K	15.88
338.16 K	15.32
343.15 K	14.65
348.14 K	14.02
353.15 K	13.34
358.15 K	12.83
363.15 K	12.27
368.15 K	11.58
373.15 K	11.01
378.15 K	10.36
383.13 K	9.778
388.14 K	9.175
